Measured values reported in US4101669A (priority 1977, dated 1978).

Assays:
[1] = Example 1: stability of active ingredient at 300 ppm in severe test waters, assay after 4 hours at room temperature; type: physicochemical; conditions: for pH: after 4 hours at room temperature; for assay (as percent of original): 4 hours, room temperature
Protocol: The stability of the active ingredient formulated as above is compared with that of the pure technical material at 300 ppm in:
(a) a basic, soda-ash softened water of initial pH 10.2 with 0.66 × 10^-3 N basicity, primarily as carbonate, and
(b) a strong "sodium bicarbonate" water (prepared to match a Montana well water) with pH 8.8 and 13 × 10^-3 N basicity.
After 4 hours at room temperature in these severe test waters, the following pH readings and assays (as percent of original) were obtained.

[2] = Example 2: stability of substituted acetamide in mixtures with commercial fungicides, 4 hour assay and 1-4 hour pH range; type: physicochemical; conditions: particularly in basic water
Protocol: is prepared by blending and hammer milling.
(b) 2-cyano-N-ethylcarbamoyl-2-methoxyiminoacetamide is finely ground.
The materials above are mixed with the following commercial fungicides in a ratio to provide 1 part of active compound of (a) or (b) with the indicated parts of commodity listed:
The mixtures are then added to distilled water in one case and 4.7 × 10^-3 N sodium bicarbonate (chosen to represent rather alkaline water) in the other case, at a rate to provide about 150 ppm of substituted acetamide. After 4 hours, the suspensions are assayed to determine the present substituted acetamide remaining. The pH during the 1-4 hour period is also recorded.

CCNC(=O)NC(=O)C(C#N)=NOC [pure compound, 2-cyano-N-ethylcarbamoyl-2-methoxyiminoacetamide]
pH ([1]; water a)): 7.7
assay (as percent of original) ([1]; water a): soda-ash softened, initial pH 10.2, 0.66 × 10^-3 N basicity): 43% of original
pH ([1]; water b)): 8.2
assay (as percent of original) ([1]; water b): strong sodium bicarbonate water, pH 8.8, 13 × 10^-3 N basicity): 16% of original
effect of acidulant on stability in mixtures with commercial fungicides [2]: the acidulant improves stability
